Drawing on ChEMBL document CHEMBL4480424, “Bialternacins A-F, Aromatic Polyketide Dimers from an Endophytic Alternaria sp” (J Nat Prod, 2019), this text covers inhibition and IC50 for nine compounds.

The source made the active and inactive calls. The rule behind the calls is not given here.

In this assay the target is Acetylcholinesterase (Homo sapiens, UniProt P22303). Briefly: Inhibition of AChE (unknown origin) using acetylthiocholine iodide as substrate after 5 mins by spectrophotometric analysis.
Acetylcholinesterase, sequence (P22303 whole entry): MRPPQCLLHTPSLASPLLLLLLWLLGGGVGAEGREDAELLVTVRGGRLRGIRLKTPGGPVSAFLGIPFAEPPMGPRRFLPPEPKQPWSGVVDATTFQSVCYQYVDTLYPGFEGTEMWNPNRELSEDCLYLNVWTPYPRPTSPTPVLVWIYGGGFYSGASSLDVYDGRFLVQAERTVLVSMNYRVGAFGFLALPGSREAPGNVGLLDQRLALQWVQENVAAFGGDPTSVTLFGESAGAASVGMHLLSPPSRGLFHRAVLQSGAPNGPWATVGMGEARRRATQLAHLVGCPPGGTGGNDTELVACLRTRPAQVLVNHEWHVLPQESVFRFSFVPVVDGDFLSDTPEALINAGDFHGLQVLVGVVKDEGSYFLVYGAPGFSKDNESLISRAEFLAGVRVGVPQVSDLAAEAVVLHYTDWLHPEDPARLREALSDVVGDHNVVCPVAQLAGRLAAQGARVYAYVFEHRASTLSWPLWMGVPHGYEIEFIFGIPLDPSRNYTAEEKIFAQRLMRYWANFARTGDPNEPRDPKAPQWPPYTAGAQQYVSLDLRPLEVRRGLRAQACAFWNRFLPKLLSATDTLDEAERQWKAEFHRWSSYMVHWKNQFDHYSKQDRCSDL
`COc1cc(O)c2c(c1)C1=CC3=Nc4cc(C)c(-c5cc(OC)cc(O)c5C(=O)O)cc4O[C@@]3(O)C[C@@]1(C)OC2=O`: the inhibition result is “inactive”.
For `COc1cc(O)c(C(=O)O)c(-c2c(C)cc(O)c3oc4c(c23)C2(OC(=O)c3c(O)cc(OC)cc32)C(C)=CC4=O)c1` (stereo in doubt; (+)-2), the inhibition result was “inactive”.
With `COc1cc(O)c2c(c1)C1=C(C3=C4c5cc(OC)cc(O)c5C(=O)OC4(C)C=C(O)C3=O)C(=O)C(O)=CC1(C)OC2=O` (stereo in doubt; (+)-6), the inhibition entry was “inactive”.
In the case of `COc1cc(O)c2c(c1)C1=C(C3=C4c5cc(OC)cc(O)c5C(=O)OC4(C)C=C(O)C3=O)C(=O)C(O)=CC1(C)OC2=O` (stereo in doubt; (-)-6), the inhibition result was “inactive”.
Same read-out and setting: next, `COc1cc(O)c(C(=O)O)c(-c2c(C)cc(O)c(O)c2-c2c(O)c(O)cc(C)c2-c2cc(OC)cc(O)c2C(=O)O)c1`: “inactive”; `COc1cc(O)c2c(c1)C1=CC3=Nc4cc(C)c(-c5cc(OC)cc(O)c5C(=O)O)cc4O[C@]3(O)C[C@]1(C)OC2=O`: “inactive”.
In the case of `COc1cc(O)c(C(=O)O)c(-c2c(C)cc(O)c3oc4c(c23)C2(OC(=O)c3c(O)cc(OC)cc32)C(C)=CC4=O)c1` (stereo in doubt; (-)-2), the inhibition result is “inactive”.
In the case of `COc1cc(O)c2c(c1)C1=C(c3c(O)c(O)cc(C)c3-c3cc(OC)cc(O)c3C(=O)O)C(=O)C(O)=CC1(C)OC2=O` (stereo not given), the IC50 turned out to be 15.5 µM and the inhibition result is “inactive”.
For the compound `COc1cc(O)c(C(C)=O)c(-c2c(C)cc(O)c3oc4c(O)cc(C)c(-c5cc(OC)cc(O)c5C(=O)O)c4c23)c1`, the IC50 was determined as 68.3 µM.
